Assay results taken from patent publication EP4603105A1, “PHARMACEUTICAL COMPOSITION CONTAINING CYCLIC COMPOUND HAVING SELECTIVE KRAS INHIBITORY EFFECT AGAINST HRAS AND NRAS” (CHUGAI SEIYAKU KABUSHIKI KAISHA, priority 2022, dated 2024).
*1 amine or outer side, *2 acyl side, *3 side chain or, on linkers, in order; H or OH if unused. Where a SMILES comes first, the peptide text is derived from it. Bridges are numbered along the chain shown (N, C = ends). [ ]: non-standard residue; d: D form. The star is where a group is joined. hPhe(3-Cl-4-CF3) = N[C@@H](CCc1ccc(C(F)(F)F)c(Cl)c1)C(=O)O; X29 = C#CCN([C@@H](Cc1ccc(C(F)(F)F)cc1)C(=O)[*:2])[*:1]; NPrPhe(4-CF3) = CCCN[C@@H](Cc1ccc(C(F)(F)F)cc1)C(=O)O; NMeGly(cPent) = CN[C@H](C(=O)O)C1CCCC1; NMeD = CN[C@@H](CC(=O)O)C(=O)O; NMeL = CN[C@@H](CC(C)C)C(=O)O; Morpholide = C1CN(*)CCO1; NMeA = CN[C@@H](C)C(=O)O; Ac5c = NC1(C(=O)O)CCCC1; Aze = O=C(O)[C@@H]1CCN1; Ac4c = NC1(C(=O)O)CCC1; Sar = CNCC(=O)O

Columns and labels:
[1] = biological target: GDP-bound NRAS wild-type protein (Homo sapiens, UniProt P01111); experiment: Binding to NRAS by surface plasmon resonance (SPR), KD and KD ratio to KRAS
Outline: (§1)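 Running buffer contained 10 µM GDP and 10 mM MgCl2 to keep RAS in the GDP state, with 4% DMSO at pH 7.4. Compounds were flowed at 100 µL/min in 75 s steps of rising concentration over captured biotin-Avi RAS at 30°C. Sensorgrams were fitted 1:1 for KD.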

HRAS wild-type protein = HRAS wild-type protein (Homo sapiens, UniProt P01112); experiment: Binding to HRAS by surface plasmon resonance (SPR), KD and KD ratio to KRAS
Outline: as §1

[2] = tested on: human lung cancer strain NCI-H441; type: cell-based
Outline: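 Step one: dispense the test compound in serial DMSO dilutions. Step three: add the reagent and measure […].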

[3] = ratio of KD for GDP-bound NRAS wild-type protein to KD for KRAS
[4] = ratio of KD for HRAS wild-type protein to KD for KRAS
[5] = ratio of the KD value with respect to GDP-bound NRAS wild-type protein to the KD value with respect to KRAS
[6] = ratio of the KD value with respect to HRAS wild-type protein to the KD value with respect to KRAS
[7] = ratio of KD value for GDP-bound NRAS wild-type protein to KD value for KRAS (SPR)
[8] = ratio of KD value for HRAS wild-type protein to KD value for KRAS (SPR)

Sequence of GDP-bound NRAS wild-type protein (P01111 whole entry): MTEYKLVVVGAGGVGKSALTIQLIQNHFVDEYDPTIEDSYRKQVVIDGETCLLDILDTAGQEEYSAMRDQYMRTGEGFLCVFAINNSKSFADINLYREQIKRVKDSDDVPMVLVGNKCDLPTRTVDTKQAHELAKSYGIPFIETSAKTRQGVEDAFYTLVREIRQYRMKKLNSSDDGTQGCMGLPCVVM
Sequence of HRAS wild-type protein (P01112 whole entry): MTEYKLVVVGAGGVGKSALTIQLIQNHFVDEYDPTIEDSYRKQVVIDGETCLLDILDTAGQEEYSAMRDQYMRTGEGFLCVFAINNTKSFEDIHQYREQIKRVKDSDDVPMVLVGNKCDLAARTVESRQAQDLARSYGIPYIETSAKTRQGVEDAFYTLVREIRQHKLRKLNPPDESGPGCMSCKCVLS

IC50 [2] [nM]	SMILES	NRAS /KRAS [1, 3]	HRAS /KRAS (HRAS wild-type protein; [4])	NRAS /KRAS [1, 5]	HRAS /KRAS (HRAS wild-type protein; [6])	NRAS /KRAS [1, 7]	HRAS /KRAS (HRAS wild-type protein; [8])
6.8	C#CCN1C(=O)[C@@H]2CCN2C(=O)[C@H](C)N(C)C(=O)[C@H]([C@@H](C)CC)NC(=O)[C@H](CC(C)C)N(C)C(=O)C[C@@H](C(=O)N2CCOCC2)N(C)C(=O)[C@H](C2CCCC2)N(C)C(=O)C2(CCCC2)NC(=O)[C@@H]2CCCN2C(=O)[C@H](CCc2ccc(C(F)(F)F)c(Cl)c2)NC(=O)CN(C)C(=O)[C@@H]1Cc1ccc(C(F)(F)F)cc1 [PP0116] ([NMeL]I[NMeA][Aze][X29][Sar][hPhe(3-Cl-4-CF3)]P[Ac5c][NMeGly(cPent)][NMeD]-Morpholide; lactam N-11)	C (A compound having a KD ratio of 0.1 or more and less than 3 is denoted as C)	C (A compound having a KD ratio of 0.1 or more and less than 3 is denoted as C)				
457	CC[C@H](C)[C@@H]1NC(=O)[C@H](CC(C)C)NC(=O)C[C@@H](C(=O)N2CCOCC2)N(C)C(=O)[C@H](C2CCCC2)N(C)C(=O)C2(CCCC2)NC(=O)[C@@H]2CCCN2C(=O)[C@H](CCc2cc(F)c(C(F)(F)F)c(F)c2)NC(=O)CN(C)C(=O)[C@H](Cc2ccc(C(F)(F)F)cc2)N2CCCCC[C@@H](C2=O)N(C)C(=O)CN(C)C1=O [PP0516]			B (a compound having 3 or more and less than 10 is denoted as B)	B (a compound having 3 or more and less than 10 is denoted as B)		
2440	CC[C@H](C)[C@@H]1NC(=O)[C@H](CC(C)C)N(C)C(=O)C[C@@H](C(=O)N2CCOCC2)NC(=O)[C@H](C2CCCC2)N(C)C(=O)C2(CCCC2)NC(=O)[C@@H]2CCCN2C(=O)[C@H](CCc2cc(F)c(C(F)(F)F)c(F)c2)NC(=O)CN(C)C(=O)[C@H](Cc2ccc(C(F)(F)F)cc2)N2CCCCC[C@@H](C2=O)N(C)C(=O)CN(C)C1=O [PP0479]			B (a compound having 3 or more and less than 10 is denoted as B)	B (a compound having 3 or more and less than 10 is denoted as B)		
13	CCO[C@@H]1C[C@H]2C(=O)NC3(CCC3)C(=O)N(C)[C@@H](C3CCCC3)C(=O)N(C)[C@H](C(=O)N(C)C)CC(=O)N(C)[C@@H](CC3CC3)C(=O)N[C@@H]([C@@H](C)CC)C(=O)N(C)CC(=O)N(C)[C@H]3C/C=C\CCN(C3=O)[C@@H](Cc3ccc(C(F)(F)F)cc3)C(=O)N(C)CC(=O)N[C@@H](CCc3cc(F)c(C(F)(F)F)c(F)c3)C(=O)N2C1 [PP1111]	A (a compound having 10 or more and less than 20 is denoted as A)	A (a compound having 10 or more and less than 20 is denoted as A)				
69.8	CCCN1C(=O)[C@@H]2CCN2C(=O)CN(C)C(=O)[C@H]([C@@H](C)CC)NC(=O)[C@H](CC(C)C)N(C)C(=O)C[C@@H](C(=O)N2CCOCC2)NC(=O)[C@H](C2CCCC2)N(C)C(=O)C2(CCC2)NC(=O)[C@@H]2CCCN2C(=O)[C@H](CCc2ccc(C(F)(F)F)c(Cl)c2)NC(=O)CN(C)C(=O)[C@@H]1Cc1ccc(C(F)(F)F)cc1 [PP0350] ([NMeL]I[Sar][Aze][NPrPhe(4-CF3)][Sar][hPhe(3-Cl-4-CF3)]P[Ac4c][NMeGly(cPent)]D-Morpholide; lactam N-11)	C (A compound having a KD ratio of 0.1 or more and less than 3 is denoted as C)	B (a compound having 3 or more and less than 10 is denoted as B)				
15.6	CCO[C@@H]1C[C@H]2C(=O)NC3(CC(C)(C)C3)C(=O)N(C)[C@@H](C3CCCC3)C(=O)N(C)[C@H](C(=O)N(C)CC)CC(=O)N(C)[C@@H](CC)C(=O)N[C@@H]([C@@H](C)CC)C(=O)N(C)CC(=O)N(C)[C@H]3C/C=C\CCN(C3=O)[C@@H](Cc3ccc(C)cc3)C(=O)N(C)CC(=O)N[C@@H](CCc3ccc(C(F)(F)F)c(Cl)c3)C(=O)N2C1 [PP1880]					A (a compound having 10 or more and less than 20 is denoted as A)	B (a compound having 3 or more and less than 10 is denoted as B)
39.3	CCC[C@@H]1C[C@H]2C(=O)NC3(CCC3)C(=O)N(C)[C@@H](C3CCCC3)C(=O)N(C)[C@H](C(=O)N(C)C)CC(=O)N(C)[C@@H](CCC)C(=O)N[C@@H]([C@@H](C)CC)C(=O)N(C)CC(=O)N(C)[C@H]3C/C=C\CCN(C3=O)[C@@H](Cc3ccc(C)cc3)C(=O)N(C)CC(=O)N[C@@H](CCc3ccc(C(F)(F)F)c(Cl)c3)C(=O)N2C1 [PP2238]			A (a compound having 10 or more and less than 20 is denoted as A)	A (a compound having 10 or more and less than 20 is denoted as A)		
46.6	CCO[C@@H]1C[C@H]2C(=O)NC3(CCC3)C(=O)N(C)[C@@H](C3CCCC3)C(=O)N(C)[C@H](C(=O)N(C)C)CC(=O)N(C)[C@@H](CC3CCCC3)C(=O)N[C@@H]([C@@H](C)CC)C(=O)N(C)CC(=O)N(C)[C@H]3C/C=C\CCN(C3=O)[C@@H](Cc3ccc(C)cc3)C(=O)N(C)CC(=O)N[C@@H](CCc3ccc(Cl)c(Cl)c3)C(=O)N2C1 [PP1487]					A (a compound having 10 or more and less than 20 is denoted as A)	A (a compound having 10 or more and less than 20 is denoted as A)
